According to patent publication US6727266B2, “Substituted tryptophan derivatives” (Shionogi & Co., Ltd., priority 2000, dated 2004):

How the values were obtained:
MMP-2 = target: T1, MMP-2 (Homo sapiens, UniProt P08253); assay: Assay for inhibitory activities on MMP-2 (fluorogenic MOCAc peptide substrate); assay type: biochemical; details: MMP-2 purchased from Calbiochem-Novabiochem
T1 construct: purchased Calbiochem-Novabiochem International, Inc
T1 sequence (P08253 110-660): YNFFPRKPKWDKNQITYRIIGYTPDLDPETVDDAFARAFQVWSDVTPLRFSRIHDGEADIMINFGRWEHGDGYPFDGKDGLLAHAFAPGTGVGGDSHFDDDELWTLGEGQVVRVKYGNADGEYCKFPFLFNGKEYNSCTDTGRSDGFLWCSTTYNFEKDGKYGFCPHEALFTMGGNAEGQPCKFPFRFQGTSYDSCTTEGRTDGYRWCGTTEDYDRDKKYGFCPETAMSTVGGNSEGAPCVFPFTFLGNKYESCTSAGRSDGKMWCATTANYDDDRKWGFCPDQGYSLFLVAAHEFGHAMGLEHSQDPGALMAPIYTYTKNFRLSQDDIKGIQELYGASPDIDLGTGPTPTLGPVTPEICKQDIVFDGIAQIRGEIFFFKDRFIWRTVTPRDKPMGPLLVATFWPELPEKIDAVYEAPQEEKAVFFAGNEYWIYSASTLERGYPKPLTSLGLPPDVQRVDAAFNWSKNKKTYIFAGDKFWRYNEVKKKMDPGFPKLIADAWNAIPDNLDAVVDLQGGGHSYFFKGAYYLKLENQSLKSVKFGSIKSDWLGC
Method: MMP-2 was purchased from Calbiochem-Novabiochem International, Inc.
(§1) The enzymatic activity on each MMP was analyzed by the method described in “C Graham Knight, Frances Willenbrock and Gillian Murphy: A novel coumarin-labelled peptide for sensitive continuous assays of the matrix metalloproteinases: FEBS LETT., 296, (1992), 263-266”. The substrate: MOCAc-Pro-Leu-Gly-Leu-A2Pr(DNP)-Ala-Arg-NH2 was purchased from Peptide Institute, Inc., Osaka, Japan.
(§2) The measurement of the inhibitory activities of a compound (inhibitor) was carried out by the following four methods;
(§3) A) Reaction with substrate, enzyme (MMPs) and inhibitor
(§4) B) Reaction with substrate and inhibitor, without enzyme
(§5) C) Reaction with substrate and enzyme (MMPs), without inhibitor
(§6) D) Reaction with substrate only
(§7) Each fluorescence values of above four methods was measured and % inhibition was calculated by using the following formula.
(§8) % inhibition={1−(A−B)/(C−D)}×100
(§9) IC50 means the concentration required to inhibit 50% of the enzyme activity.

MMP-9 = target: T2, MMP-9 (Homo sapiens, UniProt P14780); assay: Assay for inhibitory activities on MMP-9 (fluorogenic MOCAc peptide substrate); assay type: biochemical; details: MMP-9 purified from human fibrosarcoma HT1080 cells, activated by TPCK-Trypsin
T2 construct: made in house; host or cells: Endogenous secretion by human fibrosarcoma HT1080 cells (ATCC) treated with TPA; purified from the culture medium
T2 sequence (P14780 107-707 limits assumed): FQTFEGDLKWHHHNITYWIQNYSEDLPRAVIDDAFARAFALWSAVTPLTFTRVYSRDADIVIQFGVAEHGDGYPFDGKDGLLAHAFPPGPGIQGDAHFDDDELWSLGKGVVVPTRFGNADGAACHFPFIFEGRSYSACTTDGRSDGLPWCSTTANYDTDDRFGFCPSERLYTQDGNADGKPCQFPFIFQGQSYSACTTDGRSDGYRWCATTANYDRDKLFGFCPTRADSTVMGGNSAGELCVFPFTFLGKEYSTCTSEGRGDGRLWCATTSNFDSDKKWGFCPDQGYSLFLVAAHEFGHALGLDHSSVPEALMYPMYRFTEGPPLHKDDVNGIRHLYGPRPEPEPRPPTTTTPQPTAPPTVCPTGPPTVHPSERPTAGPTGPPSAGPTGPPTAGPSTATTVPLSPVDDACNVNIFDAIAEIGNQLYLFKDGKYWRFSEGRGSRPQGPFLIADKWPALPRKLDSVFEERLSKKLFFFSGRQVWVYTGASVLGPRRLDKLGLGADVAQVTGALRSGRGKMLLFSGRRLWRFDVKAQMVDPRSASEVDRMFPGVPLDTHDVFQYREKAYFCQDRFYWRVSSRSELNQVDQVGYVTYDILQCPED
From the text: MMP-9 was purified by using a combination of procedures described in the method descrived in Y. Okada et al. (Yasunori Okada, Yukio Gonoji, Katsumi Naka, Katsuro Tomita, Isao Nakanishi, Kazushi Iwata and Taro Hayakawa: Matrix metalloproteinase 9 (92-kDa gelatinase/type IV collagenase) from HT1080 human fibrosarcoma cells. Purification and activation of the precursor and enzymic properties. J. Biol. Chem., 267 (1992) 21712-21719 and the other method (1) Yasunori Okada, Tatsuhisa Morodomi, Jan J, Enghild, Ko Suzuki, Atsushi Yasui, Isao Nakanishi, Guy Salvesen and Hideaki Nagase: Matrix metalloproteinase 2 from human rheumatoid synovial fibroblasts. Purification and activation of the precursor and enzymic properties. Eur. J. Biochem. 194 (1990) 721-730 or (2) Robin V Ward, Rosalind M Hembry, John J Reynolds and Gillian Murphy: The purification of tissue inhibitor of metalloproteinase-2 from its 72 kDa progelatinase complex. Biochem. J. 278 (1991) 179-187. Briefly, human fibrosarcoma ATCC HT1080 cell line was cultured to confluent in Dulbecco's Modified Medium (DMEM) containing 10% fetal-calf serum (FCS) at 37° C. for 48 hours (5%). Further, Confluent Cell was cultured in DMEM removed FCS (2nd). To obtain MMP-9, Phorbol-12-myristate-13-acetate (TPA) was added to this DMEM medium at a concentration of 50 ng/ml. The TPA treated medium was centrifuged at 3000 rpm for 15 min and the supernatant was concentrated to 450 ml by a Toyo-Roshi UP-20 apparatus with an ultrafiltration membrane. Then, this concentrated solution was purified by Gelatin-Sepharose and Concanavalin A-Sepharose. The pool containing MMP-9 was dialyzed, concentrated (Toyo-Roshi UP-20) and applied to columns of Sephacryl S-200 and Green A matrix for the separation from TIMP. The obtained Procollagenase was activated by TPCK-Trypsin (final conc. 3 μg/μl reaction mix.) for the assay.
as §1, §2, §3, §4, §5, §6, §7, §8, §9

| IC50 (MMP-2) | IC50 (MMP-9) | melting point | Structure (SMILES) |
| --- | --- | --- | --- |
| 0.768 nM | 24.3 nM |  | Cc1ccc(C#Cc2ccc(S(=O)(=O)N[C@H](Cc3c[nH]c4cccc(O)c34)C(=O)O)s2)cc1 [Compound A-4] |
| 5.77 nM | 16 nM |  | COc1ccc(-n2nnc(-c3ccc(S(=O)(=O)N[C@H](Cc4c[nH]c5ccc(OC)cc45)C(=O)O)cc3)n2)cc1 [Compound A-11] |
| 0.617 nM | 6.66 nM |  | COc1ccc2[nH]cc(C[C@@H](NS(=O)(=O)c3ccc(-c4ccc(N(C)C)cc4)s3)C(=O)O)c2c1 [Compound A-8] |
| 22.8 nM | 174 nM |  | COc1cccc2[nH]cc(C[C@@H](NS(=O)(=O)c3ccc(C#Cc4ccc(C)cc4)s3)C(=O)O)c12 [Compound A-3] |
| 0.223 nM | 2.44 nM | 200 to 202 °C (dec.) | Cc1ccc(C#Cc2ccc(S(=O)(=O)N[C@H](Cc3c[nH]c4ccc(O)cc34)C(=O)O)s2)cc1 [Compound A-1] |
| 0.137 nM | 0.534 nM |  | O=C(O)[C@@H](Cc1c[nH]c2ccc(F)cc12)NS(=O)(=O)c1ccc(-c2ccc(N3CCCC3)cc2)s1 [Compound A-9] |
| 85.8 nM | 1420 nM |  | O=C(O)[C@H](Cc1c[nH]c2ccc(F)cc12)NS(=O)(=O)c1ccc(-c2nnn(-c3ccccc3)n2)cc1 [Compound A-12] |
| 1.21 nM | 6.49 nM |  | Cc1ccc(C#Cc2ccc(S(=O)(=O)N[C@H](Cc3c[nH]c4c(O)cccc34)C(=O)O)s2)cc1 [Compound A-5] |
| 10.6 nM | 15.6 nM |  | COc1ccc2[nH]cc(C[C@@H](NS(=O)(=O)c3ccc(C#Cc4ccc(C)cc4)s3)C(=O)O)c2c1 [Compound A-2] |
| 90.8 nM | 848 nM |  | Cc1ccc(C#Cc2ccc(S(=O)(=O)N[C@@H](Cc3c[nH]c4ccc(F)cc34)C(=O)O)s2)cc1 [Compound A-6] |
| 4.04 nM | 12 nM |  | O=C(O)[C@H](Cc1c[nH]c2ccc(F)cc12)NS(=O)(=O)c1ccc(-c2ccc(N3CCCC3)cc2)s1 [Compound A-10] |
